According to patent US10273226B2, “Pyrazolyl-heteroarylamides as pesticides” (Bayer Animal Health GmbH, priority 2014, dated 2019):

Assays:
Type in all cases: in vivo
Ctenocephalides felis [1] = experiment: Ctenocephalides felis in vitro contact test with adult cat fleas; conditions: application rate 5 μg/cm^2 (500 g/ha); after 48 h; fleas dead or moribund
Summary of the method: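 Test tubes were coated with 250 μl acetone solution of compound, giving 5 μg/cm^2 at 900 ppm, then dried and stocked with 5-10 adult cat fleas. After 48 h at room temperature and ambient humidity, dead or moribund fleas were counted; efficacy given as % (100% = all dead or moribund).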

Rhipicephalus sanguineus = Rhipicephalus sanguineus in vitro contact test with adult brown dog ticks; conditions: application rate 5 μg/cm^2 (500 g/ha); after 48 h; ticks dead or moribund
Summary of the method: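 Test tubes (25 ml) were coated by dissolving active ingredient in acetone p.a., diluting to the required concentration, and spreading 250 μl over the inner walls and base on an orbital shaker at 30 rpm for 2 h. Once dry, 5-10 adult Rhipicephalus sanguineus were added, and tubes were capped with perforated lids and kept horizontal in darkness at room temperature. At 48 h, ticks were knocked down and heated at 45-50° C. for up to 5 min. Those unable to climb away were counted dead or moribund, and efficacy ran from 0% to 100%.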

[2] = tested on: Boophilus microplus Parkhurst strain, SP-resistant; experiment: Boophilus microplus dip test; conditions: application rate 100 ppm, assessed after 7 days
Experimental: Boophilus microplus—Dip Test
Test animals: cattle ticks (Boophilus microplus) Parkhurst strain, SP-resistant
(§1) Solvent: dimethyl sulphoxide
10 mg of active ingredient are dissolved in 0.5 ml of dimethyl sulphoxide. For the purpose of producing a suitable formulation, the active ingredient solution is diluted with water to the concentration desired in each case.
This active ingredient formulation is pipetted into tubes. 8-10 adult engorged female cattle ticks (Boophilus microplus) are transferred into a further tube with holes. The tube is immersed into the active ingredient formulation, and all the ticks are completely wetted. After the liquid has run out, the ticks are transferred on filter discs into plastic dishes and stored in a climate-controlled room.
Efficacy is assessed after 7 days by laying of fertile eggs. Eggs which are not visibly fertile are stored in a climate-controlled cabinet until the larvae hatch after about 42 days. An efficacy of 100% means that none of the ticks has laid any fertile eggs; 0% means that all the eggs are fertile.

Boophilus microplus = Boophilus microplus injection test; conditions: application rate 20 μg/animal; injection into abdomen; assessed after 7 days
Summary of the method: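 Compound dissolved in DMSO (10 mg per 0.5 ml, then diluted with DMSO to test concentration); 1 μl injected into the abdomen of 5 engorged adult female ticks, which are then held in a climate-controlled room. Efficacy judged after 7 days by laying of fertile eggs.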

Ctenocephalides felis [3] = experiment: Ctenocephalides felis oral test; conditions: application rate 100 ppm in citrated cattle blood; after 2 days
Summary of the method: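 About 20 unfed adult cat fleas fed through a parafilm membrane on citrated cattle blood containing compound, dosed from a DMSO stock. Kill in % scored after 2 days; 100% means all fleas dead.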

Lucilia cuprina = Lucilia cuprina test; conditions: application rate 100 ppm; L1 larvae; after 2 days
Summary of the method: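 About 20 L1 larvae placed in vessels with minced horsemeat treated with compound (DMSO concentrate diluted in water) at the desired concentration. Kill (%) scored after 2 days; 100% means all larvae dead, 0% none.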

Phaedon cochleariae = Phaedon cochleariae spray test; conditions: application rate 100 g/ha; larvae; after 7 days
Summary of the method: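 Chinese cabbage leaf discs were sprayed with the compound formulated in water containing 1000 ppm emulsifier. After drying, they were infested with mustard beetle larvae. Efficacy was scored as % larvae killed after 7 days (100% = all dead, 0% = none).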

Spodoptera frugiperda = Spodoptera frugiperda spray test; conditions: application rate 100 g/ha; caterpillars; after 7 days
Summary of the method: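 Maize leaf discs were sprayed with compound formulated in solvent plus water containing 1000 ppm emulsifier, dried, then infested with Spodoptera frugiperda caterpillars. Efficacy in % mortality was scored after 7 days (100% all killed, 0% none).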

Tetranychus urticae = Tetranychus urticae spray test, OP-resistant; conditions: application rate 100 g/ha; after 6 days
Summary of the method: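 Bean leaf discs (Phaseolus vulgaris) carrying all stages of OP-resistant mites are sprayed with compound formulated in solvent and emulsifier-containing water. Efficacy (% mites killed) is scored after 6 days.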

Myzus persicae = Myzus persicae spray test; conditions: application rate 100 g/ha; after 6 days
Experimental: Myzus persicae—Spray Test
To produce an appropriate active ingredient formulation, 1 part by weight of active ingredient is dissolved using the specified parts by weight of solvent and made up with water containing an emulsifier concentration of 1000 ppm until the desired concentration is attained. To produce further test concentrations, the preparation is diluted with emulsifier-containing water.
Discs of Chinese cabbage leaves (Brassica pekinensis) infested by all stages of the green peach aphid (Myzus persicae) are sprayed with an active ingredient formulation of the desired concentration.
After 6 days, efficacy in % is determined. 100% means that all the aphids have been killed; 0% means that none of the aphids have been killed.

Musca domestica = Musca domestica test; conditions: application rate 100 ppm; adult houseflies; after 2 days
Experimental: as §1
To produce an appropriate active ingredient formulation, 10 mg of active ingredient are mixed with 0.5 ml of dimethyl sulphoxide, and the concentrate is diluted with water to the desired concentration.
Vessels containing a sponge treated with sugar solution and the active ingredient formulation of the desired concentration are populated with 10 adult houseflies (Musca domestica).
After 2 days, the kill in % is determined. 100% means that all of the flies have been killed; 0% means that none of the flies have been killed.

Cc1ccc(C(=O)Nc2cc(-c3cnn(-c4c(C(F)(F)F)c(C(F)(F)C(F)(F)F)nn4C)c3)ccc2F)cc1 [Example 1-060]
80%: efficacy (Ctenocephalides felis [1])
100%: efficacy (Rhipicephalus sanguineus) | efficacy (laying of fertile eggs) [2] | efficacy (laying of fertile eggs) (Boophilus microplus) | efficacy (kill in %) (Ctenocephalides felis [3]) | efficacy (kill in %) (Lucilia cuprina) | efficacy (Phaedon cochleariae) | efficacy (Tetranychus urticae)
83%: efficacy (Spodoptera frugiperda)

CC(C)C(=O)Nc1cc(-c2cnn(-c3c(C(F)(F)F)c(C(F)(F)C(F)(F)F)nn3C)c2)ccc1F [Example 1-064]
100%: efficacy (Ctenocephalides felis [1]) | efficacy (Rhipicephalus sanguineus) | efficacy (laying of fertile eggs) (Boophilus microplus) | efficacy (kill in %) (Ctenocephalides felis [3]) | efficacy (kill in %) (Lucilia cuprina) | efficacy (Myzus persicae) | efficacy (Phaedon cochleariae) | efficacy (Spodoptera frugiperda) | efficacy (Tetranychus urticae)

Cn1nc(C(F)(F)C(F)(F)F)c(C(F)(F)F)c1-n1cc(-c2ccc(F)c(NC(=O)c3cccc(F)c3)c2)cn1 [Example 1-073]
100%: efficacy (Ctenocephalides felis [1]) | efficacy (Rhipicephalus sanguineus) | efficacy (laying of fertile eggs) [2] | efficacy (laying of fertile eggs) (Boophilus microplus) | efficacy (kill in %) (Ctenocephalides felis [3]) | efficacy (kill in %) (Lucilia cuprina) | efficacy (Phaedon cochleariae) | efficacy (Spodoptera frugiperda) | efficacy (Tetranychus urticae)
90%: efficacy (kill in %) (Musca domestica)

CCC(=O)Nc1cc(-c2cnn(-c3c(C(F)(F)F)c(C(F)(F)C(F)(F)F)nn3C)c2)ccc1F [Example 1-076]
90%: efficacy (Tetranychus urticae)
100%: efficacy (Ctenocephalides felis [1]) | efficacy (Rhipicephalus sanguineus) | efficacy (laying of fertile eggs) (Boophilus microplus) | efficacy (kill in %) (Ctenocephalides felis [3]) | efficacy (Myzus persicae) | efficacy (Phaedon cochleariae) | efficacy (Spodoptera frugiperda)
95%: efficacy (kill in %) (Lucilia cuprina)

Cc1cccc(C(=O)Nc2cc(-c3cnn(-c4c(C(F)(F)F)c(C(F)(F)C(F)(F)F)nn4C)c3)ccc2F)c1C [Example 1-080]
100%: efficacy (laying of fertile eggs) [2] | efficacy (laying of fertile eggs) (Boophilus microplus)
95%: efficacy (kill in %) (Ctenocephalides felis [3])

Cc1oncc1C(=O)Nc1cc(-c2cnn(-c3c(C(F)(F)F)c(C(F)(F)C(F)(F)F)nn3C)c2)ccc1F [Example 1-081]
100%: efficacy (Ctenocephalides felis [1]) | efficacy (Rhipicephalus sanguineus) | efficacy (laying of fertile eggs) (Boophilus microplus) | efficacy (kill in %) (Ctenocephalides felis [3]) | efficacy (kill in %) (Lucilia cuprina) | efficacy (Myzus persicae) | efficacy (Phaedon cochleariae) | efficacy (Spodoptera frugiperda) | efficacy (Tetranychus urticae)

Cn1nc(C(F)(F)C(F)(F)F)c(C(F)(F)F)c1-n1cc(-c2ccc(F)c(NC(=O)c3cncc(F)c3)c2)cn1 [Example 1-086]
100%: efficacy (Ctenocephalides felis [1]) | efficacy (Rhipicephalus sanguineus) | efficacy (laying of fertile eggs) (Boophilus microplus) | efficacy (kill in %) (Ctenocephalides felis [3]) | efficacy (kill in %) (Lucilia cuprina) | efficacy (kill in %) (Musca domestica) | efficacy (Myzus persicae) | efficacy (Phaedon cochleariae) | efficacy (Spodoptera frugiperda)
90%: efficacy (Tetranychus urticae)

Cn1nc(C(F)(F)C(F)(F)F)c(C(F)(F)F)c1-n1cc(-c2cnc(Cl)c(NC(=O)c3ccc(F)cc3)c2)cn1 [Example 2-001]
100%: efficacy (Rhipicephalus sanguineus) | efficacy (laying of fertile eggs) (Boophilus microplus) | efficacy (kill in %) (Ctenocephalides felis [3]) | efficacy (kill in %) (Lucilia cuprina) | efficacy (kill in %) (Musca domestica) | efficacy (Phaedon cochleariae) | efficacy (Spodoptera frugiperda) | efficacy (Tetranychus urticae)
80%: efficacy (laying of fertile eggs) [2]
